Like-named read-outs stand apart in the source and are kept apart here.
Molecular target: T1, human growth hormone secretagogue receptor (hGHS-R1a) (Homo sapiens, UniProt Q92847)
T1 construct: purchased PerkinElmer BioSignal #RBHGHSM; host or cells: HEK-293, stably transfected
Assay: Competitive radioligand binding assay (ghrelin receptor), [125I]-ghrelin displacement on GHS-R/HEK 293 membranes;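 for Binding Activity at the Human Ghrelin Receptor (Ki): symbols B 10-100 nM C 0.1-1 µM D 1-10 µM F above 1 µM G above 10 µM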
Protocol: The competitive binding assay at the human growth hormone secretagogue receptor (hGHS-R1a) was carried out analogously to assays described in the literature.
Multiscreen Harvest plates-GF/C (Millipore, #MAHFC1H60) • 4. […] Bottom seal (Millipore, #MATAH0P00) • 7. […] Binding Buffer: 25 mM Hepes (pH 7.4), 1 mM CaCl2, 5 mM MgCl2, 2.5 mM EDTA, 0.4% BSA
Competition experiments were performed in a 300 μl filtration assay format. • 1. 220 μL of membranes diluted in binding buffer • 2. 40 μL of compound diluted in binding buffer • 3.
Compounds were provided frozen on dry ice at a stock concentration of 10 mM diluted in 100% DMSO and stored at −80° C. until the day of testing. On the test day, compounds were allowed to thaw at rt O/N and then diluted in assay buffer according to the desired test concentrations. Under these conditions, the maximal final DMSO concentration in the assay was 0.1%.
Plates were sealed with TopSeal-A, vortexed gently and incubated at rt for 30 min. The reaction was arrested by filtering samples through Multiscreen Harvest plates (pre-soaked in 0.5% polyethyleneimine) using a Tomtec Harvester, washed 9 times with 500 μL of cold 50 mM Tris-HCl (pH 7.4, 4° C.), and then plates were air-dried in a fumehood 30 min. A bottom seal was applied to the plates prior to the addition of 25 μL of MicroScint-0 to each well. […] Results were expressed as counts per minute (cpm).
Data were analyzed by GraphPad Prism (GraphPad Software, San Diego, Calif.) using […] non-linear regression analysis.
where total and non-specific binding represent the cpm obtained in the absence or presence of 1 μM ghrelin, respectively.
• 1. Binding performed on membranes prepared from HEK293 expressing the transfected, cloned human ghrelin receptor (hGHS-R1a). • 2. […] Ghrelin (unlabeled, 1 μM) was used to determine non-specific binding. • 4.

[1] = Binding activity at the human ghrelin receptor, [125I]-ghrelin displacement, read-out: Ki
[2] = [125I]-ghrelin displacement, GHS-R/HEK 293 membranes, class symbols, read-out: Binding Activity at the Human Ghrelin Receptor (Ki)
[3] = Table 3B, binding activity at the human ghrelin receptor, read-out: Ki

T1 sequence (Q92847 whole entry): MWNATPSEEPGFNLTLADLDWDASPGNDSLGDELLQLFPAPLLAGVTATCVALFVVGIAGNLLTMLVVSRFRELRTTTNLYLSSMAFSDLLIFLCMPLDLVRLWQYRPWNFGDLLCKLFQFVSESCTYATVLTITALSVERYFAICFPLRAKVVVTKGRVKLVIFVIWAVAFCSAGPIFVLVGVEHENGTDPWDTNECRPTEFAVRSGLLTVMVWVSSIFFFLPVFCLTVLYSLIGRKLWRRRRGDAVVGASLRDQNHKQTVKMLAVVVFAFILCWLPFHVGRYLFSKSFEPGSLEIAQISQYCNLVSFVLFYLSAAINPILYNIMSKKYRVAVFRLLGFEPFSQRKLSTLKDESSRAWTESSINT

O=C1NC2(CCCC2)C(=O)N[C@@H](Cc2ccccc2)C(=O)NC/C=C/c2ccccc2OCCN[C@H]1Cc1ccc2ccccc2c1 [compound 131]
Ki [1]: 0.1 to 1 µM

O=C1NC2(CCCC2)C(=O)N[C@@H](Cc2ccccc2)C(=O)NC/C=C/c2ccccc2OCCN[C@H]1Cc1cscn1 [compound 134]
Ki [1]: 0.1 to 1 µM

O=C1NC2(CCCC2)C(=O)N[C@@H](Cc2ccccc2)C(=O)NC/C=C/c2ccccc2OCCN[C@H]1Cc1cccs1 [compound 135]
Ki [1]: 0.1 to 1 µM

CCC[C@@H]1NCCOc2ccccc2/C=C/CNC(=O)[C@H](Cc2ccccc2)NC(=O)C2(CCCC2)NC1=O [compound 137]
Ki [1]: 0.01 to 0.1 µM

CC(C)C1NCCOc2ccccc2/C=C/CNC(=O)C(Cc2ccccc2)NC(=O)C2(Cc3ccccc3C2)NC1=O (stereo not shown) [compound 142]
Ki [1]: 0.1 to 1 µM

CC(C)C1NCCOc2ccccc2/C=C/CNC(=O)C(Cc2ccccc2)NC(=O)C2(CCSCC2)NC1=O (stereo not shown) [compound 143]
Ki [1]: 0.1 to 1 µM

CC[C@H](C)[C@@H]1NCCOc2ccccc2CCCNC(=O)[C@@H](Cc2ccccc2)NC(=O)[C@@H](C(C)C)N(C)C1=O [compound 144]
Ki [1]: 0.1 to 1 µM

CC[C@@H](C)[C@@H]1C(=O)N[C@H](Cc2ccccc2)C(=O)NCCCc2ccccc2OCCN[C@@H]([C@@H](C)CC)C(=O)N1C [compound 149]
Ki [1]: 1 to 10 µM

CC(C)C[C@@H]1NCCOc2ccccc2/C=C/CNC(=O)[C@H](C(c2ccccc2)c2ccccc2)NC(=O)C2(CCCC2)NC1=O [compound 158]
Ki [2]: > 1 µM

CC(C)C[C@@H]1NCCOc2ccccc2/C=C/CNC(=O)[C@H](Cc2cscn2)NC(=O)C2(CCCC2)NC1=O [compound 163]
Ki [2]: > 10 µM

CC[C@H](C)[C@@H]1NCCCc2ccccc2CCNC(=O)[C@@H](Cc2ccccc2)NC(=O)[C@@H](C)N(C)C1=O [compound 179]
Ki [2]: 0.1 to 1 µM

CC[C@H](C)[C@@H]1NCCCCc2ccccc2CCNC(=O)[C@@H](Cc2ccccc2)NC(=O)[C@@H](C)N(C)C1=O [compound 180]
Ki [2]: 0.1 to 1 µM

CC[C@H](C)[C@@H]1NCCOCC=CCNC(=O)[C@@H](Cc2ccccc2)NC(=O)[C@@H](C)N(C)C1=O [compound 185]
Ki [2]: 0.1 to 1 µM

CC[C@H](C)[C@@H]1NCCc2ccccc2C=CCNC(=O)[C@@H](Cc2ccccc2)NC(=O)[C@@H](C)N(C)C1=O [compound 187]
Ki [2]: 0.1 to 1 µM

CC(C)[C@@H]1NCCOc2ccccc2/C=C/CNC(=O)[C@H](Cc2ccccc2)NC(=O)C2(CCCC2)NC1=O [compound 200]
Ki [2]: 0.01 to 0.1 µM

CCC[C@H]1C(=O)N(C)[C@H](C)C(=O)N[C@H](Cc2ccccc2)C(=O)NCCCc2ccccc2OCCN1C(C)=O [compound 202]
Ki [2]: > 10 µM

CC(=O)N1CCOc2ccccc2/C=C/CNC(=O)[C@H](Cc2ccccc2)NC(=O)C2(CCCC2)NC(=O)[C@@H]1CC(C)C [compound 204]
Ki [2]: > 10 µM

CC(C)C1NCCOc2ccccc2CCCNC(=O)C(Cc2ccccc2)NC(=O)C2(CCNCC2)NC1=O (stereo not shown) [compound 207]
Ki [2]: > 10 µM

O=C1NC2(CCCC2)C(=O)N[C@@H](Cc2ccccc2)C(=O)NC/C=C/c2ccccc2OCCN[C@H]1Cc1ccccn1 [compound 210]
Ki [2]: > 1 µM

CC(C)[C@@H]1NCCOc2ccccc2/C=C/CNC(=O)[C@H](Cc2ccccc2)NC(=O)C2(CCNCC2)NC1=O [compound 211]
Ki [2]: > 1 µM

CCC(C)C1NCCOc2ccccc2CCCNC(=O)C(Cc2ccccc2)NC(=O)C(COC(C)(C)C)NC1=O (stereo not shown) [compound 215]
Ki [2]: 1 to 10 µM

CC(C)[C@@H]1NCCOc2ccccc2CCCNC(=O)[C@H](Cc2ccccc2)NC(=O)C2(CC2)NC1=O [compound 216]
Ki [2]: 1 to 10 µM

O=C1NC/C=C/c2ccccc2OCCNC2(CCCCC2)C(=O)NC2(CCCC2)C(=O)N[C@H]1Cc1ccccc1 [compound 218]
Ki [2]: 0.01 to 0.1 µM

O=C1NC2(CCCC2)C(=O)N[C@@H](Cc2ccccc2)C(=O)NC/C=C/c2ccccc2OCCN[C@H]1Cc1cnc[nH]1 [compound 219]
Ki [2]: 0.1 to 1 µM

CCC[C@@H]1NCCOc2ccccc2CCCNC(=O)[C@@H](Cc2ccccc2)NC(=O)[C@@H]2CCCN2C1=O [compound 220]
Ki (Table 3E, read-out: Ki): 1 to 10 µM
Ki [2]: 1 to 10 µM

CC(C)C[C@@H]1NCCOc2ccccc2CCCNC(=O)[C@H](Cc2ccccc2)NC(=O)[C@@H]2CCCN2C1=O [compound 222]
Ki (Table 3E, read-out: Ki): 1 to 10 µM
Ki [2]: 1 to 10 µM

CC(C)C[C@@H]1NCCOc2ccccc2CCCNC(=O)[C@H](Cc2ccccc2)NC(=O)[C@H]2CCCN2C1=O [compound 223]
Ki (Table 3E, read-out: Ki): 1 to 10 µM
Ki [2]: 1 to 10 µM

C[C@@H]1C(=O)N[C@H](Cc2ccccc2)C(=O)NCCCc2ccccc2OCCN2CCC[C@H]2C(=O)N1C [compound 225]
Ki (Table 3E, read-out: Ki): 0.1 to 1 µM
Ki [2]: 0.1 to 1 µM

O=C1NC2(CCCC2)C(=O)N[C@@H](Cc2cccc(Cl)c2)C(=O)NC/C=C/c2ccccc2OCCN[C@H]1Cc1ccc(O)cc1 [compound 301]
Ki [3]: 0.01 to 0.1 µM

C[C@@H]1C(=O)N[C@H](Cc2ccc(F)cc2)C(=O)NCCC=CCOCCN[C@@H](C2CC2)C(=O)N1C [compound 307]
Ki [3]: 0.1 to 1 µM

C[C@@H]1C(=O)N[C@H](Cc2ccc(F)cc2)C(=O)NCCCc2ccccc2OCCN[C@@H](C2CC2)C(=O)N1C [compound 309]
Ki [3]: 0.0001 to 0.01 µM

C[C@@H]1C(=O)N[C@H](Cc2ccsc2)C(=O)NCCCc2ccccc2OCCN[C@@H](C2CC2)C(=O)N1C [compound 310]
Ki [3]: 0.01 to 0.1 µM

C[C@@H]1C(=O)N[C@H](Cc2ccccc2F)C(=O)NCCCc2ccccc2OCCN[C@@H](C2CC2)C(=O)N1C [compound 312]
Ki [3]: 0.0001 to 0.01 µM

C[C@@H]1C(=O)N[C@H](Cc2cccc(F)c2)C(=O)NCCCc2ccccc2OCCN[C@@H](C2CC2)C(=O)N1C [compound 313]
Ki [3]: 0.01 to 0.1 µM

C[C@@H]1C(=O)N[C@H](Cc2ccc(Cl)c(Cl)c2)C(=O)NCCCc2ccccc2OCCN[C@@H](C2CC2)C(=O)N1C [compound 315]
Ki [3]: 0.0001 to 0.01 µM

C[C@@H]1C(=O)N[C@H](Cc2ccc(F)c(F)c2)C(=O)NCCCc2ccccc2OCCN[C@@H](C2CC2)C(=O)N1C [compound 316]
Ki [3]: 0.01 to 0.1 µM

C[C@@H]1C(=O)N[C@H](Cc2cc(F)cc(F)c2)C(=O)NCCCc2ccccc2OCCN[C@@H](C2CC2)C(=O)N1C [compound 317]
Ki [3]: 0.01 to 0.1 µM

C[C@@H]1C(=O)N[C@H](Cc2ccc(Br)cc2)C(=O)NCCCc2ccccc2OCCN[C@@H](C2CC2)C(=O)N1C [compound 319]
Ki [3]: 0.0001 to 0.01 µM

C[C@@H]1C(=O)N[C@H](Cc2ccc(I)cc2)C(=O)NCCCc2ccccc2OCCN[C@@H](C2CC2)C(=O)N1C [compound 320]
Ki [3]: 0.0001 to 0.01 µM

C[C@@H]1C(=O)N[C@H](Cc2ccc(C#N)cc2)C(=O)NCCCc2ccccc2OCCN[C@@H](C2CC2)C(=O)N1C [compound 321]
Ki [3]: 0.01 to 0.1 µM

COc1ccc(C[C@H]2NC(=O)[C@@H](C)N(C)C(=O)[C@H](C3CC3)NCCOc3ccccc3CCCNC2=O)cc1OC [compound 323]
Ki [3]: 0.1 to 1 µM

CC[C@H](C)[C@@H]1NCCOc2ccccc2/C=C/CNC(=O)[C@H](Cc2cccc(Br)c2)NC(=O)C2(CCCC2)NC1=O [compound 326]
Ki [3]: 0.01 to 0.1 µM

CC[C@H](C)[C@@H]1NCCOc2ccccc2/C=C/CNC(=O)[C@H](Cc2cccc(C#N)c2)NC(=O)C2(CCCC2)NC1=O [compound 329]
Ki [3]: 0.01 to 0.1 µM

CCC(C)C1NCCOc2ccccc2C=CCNC(=O)C(Cc2ccsc2)NC(=O)C2(CCCC2)NC1=O (stereo not shown) [compound 333]
Ki [3]: 0.1 to 1 µM

CO[C@H](C)[C@@H]1NCCOc2ccccc2CCCNC(=O)[C@@H](Cc2ccc(F)cc2)NC(=O)[C@@H](C)N(C)C1=O [compound 335]
Ki [3]: 0.01 to 0.1 µM

COC[C@@H]1NCCOc2ccccc2CCCNC(=O)[C@@H](Cc2ccc(F)cc2)NC(=O)[C@@H](C)N(C)C1=O [compound 336]
Ki [3]: 0.1 to 1 µM

C[C@@H]1C(=O)N[C@H](Cc2ccc(F)cc2)C(=O)NCCCc2ccccc2OCCN[C@@H](CN)C(=O)N1C [compound 337]
Ki [3]: 0.1 to 1 µM

C[C@@H]1C(=O)N[C@H](Cc2ccc(F)cc2)C(=O)NCCCc2ccccc2OCCN[C@@H](CCN)C(=O)N1C [compound 338]
Ki [3]: 0.1 to 1 µM

C[C@@H]1C(=O)N[C@H](Cc2ccc(F)cc2)C(=O)NCCCc2ccccc2OCCN[C@@H](CCCN)C(=O)N1C [compound 339]
Ki [3]: 0.1 to 1 µM

CSCC[C@@H]1NCCOc2ccccc2CCCNC(=O)[C@@H](Cc2ccc(F)cc2)NC(=O)[C@@H](C)N(C)C1=O [compound 340]
Ki [3]: 0.01 to 0.1 µM

O=C1NC2(CCCC2)C(=O)N[C@@H](Cc2cccc(Cl)c2)C(=O)NC/C=C/c2ccccc2OCCN[C@H]1Cc1ccsc1 [compound 341]
Ki [3]: 0.01 to 0.1 µM

N#Cc1ccccc1C[C@@H]1NCCOc2ccccc2/C=C/CNC(=O)[C@H](Cc2cccc(Cl)c2)NC(=O)C2(CCCC2)NC1=O [compound 342]
Ki [3]: 0.1 to 1 µM

COC[C@@H]1NCCOc2ccccc2/C=C/CNC(=O)[C@H](Cc2cccc(Cl)c2)NC(=O)C2(CCCC2)NC1=O [compound 344]
Ki [3]: 0.1 to 1 µM

O=C1NC/C=C/c2ccccc2OCCN[C@@H](C2CC2)C(=O)NC2(CCCC2)C(=O)N[C@H]1Cc1cccc(Cl)c1 [compound 346]
Ki [3]: 0.1 to 1 µM
